Legend:
[1] = test system: HCV genotype 1a replicon cell line; assay: HCV Genotype 1a Replicon Assay; type: cell-based, hepatitis C virus; details: Huh7.5 cell background, NS3-specific protease activity in lysates, 48 or 72 hours; for EC50: Hepatitis C virus, read-out: Genotype 1a (pEC50 class) (converted)
How it was run: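 Huh7.5-based subgenomic genotype 1a replicon cells, plated without G418, exposed to compound dose-responses (0.5% DMSO final) for 48 or 72 h at 37 °C. Lysate NS3/4a protease activity read with 15 μM FRET substrate, 20 min at 37 °C (Ex 340/Em 509 nm); EC50 from 4-parameter fit.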

[2] = test system: HCV genotype 1b replicon cell line; assay: HCV Genotype 1b Replicon Assay; type: cell-based, hepatitis C virus; details: Renilla luciferase readout, 48 hours; for Genotype 1b (pEC50 class): Huh7 cell background; for EC50: Hepatitis C virus, Huh-7, Huh7 cell background, read-out: Genotype 1b (pEC50 class) (converted)
Text: Assay 1: HCV Genotype 1b Replicon Assay
The HCV genotype 1b replicon cell line was obtained from Apath LLC (Brooklyn, N.Y.) (APC144; Huh7 cell background). This subgenomic replicon contains the N-terminus of the HCV core protein fused to the neomycin-resistance selectable marker. The EMCV IRES lies downstream and drives expression of humanized Renilla luciferase fused to the non-structural proteins NS3-NS5B. This cell line was used to determine compound potency using the luciferase activity readout as a measurement of compound inhibition of replicon levels.
Cells were grown at 37° C. in a 5% CO2 humidified incubator in DMEM (Invitrogen) with 10% FBS (HyClone), 1×NEAA (Invitrogen), 1× Pen-Strep (Invitrogen), and 500 μg/mL G418 (Invitrogen). On day 1 of the assay, cells were plated at 10,000 cells/well in white 96-well tissue culture plates (Costar) in 200 μL media lacking G418. Four hours later, once the cells have adhered, the media was removed and replaced with media (no G418) containing dose-responses of test compounds. Compounds were initially diluted in DMSO and then diluted another 200× in media to bring the final DMSO concentration down to 0.5%. The cells were incubated with test compounds for 48 hours. At the end of the incubation period, media and compound were removed from the plates and the luciferase activity was determined using Promega Renilla-Glo reagents.
To analyze the data, the luciferase activity was plotted vs. the compound concentration, and EC50 values were determined from a 4-parameter robust fit model with the GraphPad Prism software package (GraphPad Software, Inc., San Diego, Calif.). Results are expressed as the negative decadic logarithm of the EC50 value, pEC50.
Test compounds having a higher pEC50 value in this assay show greater inhibition of HCV genotype 1b replication.

Row | Structure (SMILES) | Genotype 1a (pEC50 class) [1] | Genotype 1b (pEC50 class) [2] | EC50 [1] [nM] | EC50 [2] [nM]
1 | COC(=O)N[C@H](C(=O)N1CCC[C@H]1c1nc(-c2ccc(-c3ccc(NC(=O)N4CCC(N5CCN(C(=O)[C@H]6CC6(C)C)CC5)CC4)cc3)cc2)c[nH]1)C(C)C [Example 3-2] | B (B represents pEC50 between 8 and 9 (EC50 between 1 and 10 nM)) | D (D represents pEC50>10 (EC50<0.1 nM)) |  | 
2 | COC(=O)N[C@H](C(=O)N1C[C@@H](C)C[C@H]1c1nc(-c2ccc(-c3ccc(NC(=O)N4CCC(N5CCN(C(=O)C(C)(C)C)CC5)CC4)cc3OC(F)(F)F)cc2)c(F)[nH]1)C1CCOCC1 [Example 9-2] |  |  | < 0.1 | < 0.1
3 | COC(=O)N[C@H](C(=O)N1CCC[C@H]1c1nc(-c2ccc(-c3ccc(NC(=O)N4CCN(C5CCN(C(=O)C6CC6)CC5)CC4)cc3)cc2)c[nH]1)C(C)C [Example 1-8] | C (C represents pEC50 between and 9 and about 10, (EC50 between 1 nM and 0.1 nM)) | D (D represents pEC50>10 (EC50<0.1 nM)) |  | 
4 | COC(=O)N[C@H](C(=O)N1CCC[C@H]1c1nc(-c2ccc(-c3ccc(NC(=O)N4CCN(C5CCN(C(=O)[C@H]6CC6(C)C)CC5)CC4)cc3OC(F)(F)F)cc2)c[nH]1)C(C)C [Example 1-12] | C (C represents pEC50 between and 9 and about 10, (EC50 between 1 nM and 0.1 nM)) | D (D represents pEC50>10 (EC50<0.1 nM)) |  | 
5 | COC(=O)N[C@H](C(=O)N1C[C@@H](C)C[C@H]1c1nc(-c2ccc(-c3cc(F)c(NC(=O)N4CCN(C5CCN(C(=O)C(C)(C)C)CC5)CC4)cc3OC(F)(F)F)cc2)c[nH]1)C(C)C [Example 2-5] | D (D represents pEC50>10 (EC50<0.1 nM)) | D (D represents pEC50>10 (EC50<0.1 nM)) |  | 
6 | COC(=O)N[C@H](C(=O)N1C[C@@H](C)C[C@H]1c1nc2c(ccc3cc(-c4ccc(NC(=O)N5CCN(C6CCN(C(=O)C(C)(C)CO)CC6)CC5)cc4OC(F)(F)F)ccc32)[nH]1)C(C)C [Example 6-4] |  |  | < 0.1 | < 0.1
7 | COC(=O)N[C@H](C(=O)N1C[C@@H](C)C[C@H]1c1nc(-c2ccc(-c3ccc(NC(=O)N4CCN(C5CCN(C(=O)C(C)(C)C)CC5)CC4)cc3OC(F)(F)F)cc2)c[nH]1)C(C)C [Example 2-9] | D (D represents pEC50>10 (EC50<0.1 nM)) | D (D represents pEC50>10 (EC50<0.1 nM)) |  | 
8 | COC(=O)N[C@H](C(=O)N1C[C@@H](C)C[C@H]1c1nc(-c2ccc(-c3cc(F)c(NC(=O)N4CCN(C5CCN(C(=O)[C@H]6CC6(C)C)CC5)CC4)cc3OC(F)(F)F)cc2)c[nH]1)C(C)C [Example 2-16] | D (D represents pEC50>10 (EC50<0.1 nM)) | D (D represents pEC50>10 (EC50<0.1 nM)) |  | 
9 | COC(=O)N[C@H](C(=O)N1C[C@@H](C)C[C@H]1c1nc(-c2ccc(-c3ccc(NC(=O)N4CCN(C5CCN(C(=O)C(C)(C)C)CC5)CC4)cc3OC(F)(F)F)cc2)c(Cl)[nH]1)C(C)C [Example 7, [(S)-1-((2S,4S)-2-{5-Chloro-4-[4′-({4-[1-(2,2-dimethyl-propionyl)-piperidin-4-yl]-piperazine-1-carbonyl}-amino)-2′-trifluoromethoxy-biphenyl-4-yl]-1H-imidazol-2-yl}-4-methyl-pyrrolidine-1-carbonyl)-2-methyl-propyl]-carbamic acid methyl ester] |  |  | < 0.1 | < 0.1
10 | COC(=O)N[C@H](C(=O)N1C[C@@H](C)C[C@H]1c1nc(-c2ccc(-c3ccc(NC(=O)N4CCN(C5CCN(C(=O)OC(C)(C)C)CC5)CC4)cc3OC(F)(F)F)cc2)c[nH]1)C(C)C [Example 2-21] | D (D represents pEC50>10 (EC50<0.1 nM)) | D (D represents pEC50>10 (EC50<0.1 nM)) |  | 
11 | COC(=O)N[C@H](C(=O)N1C[C@@H](C)C[C@H]1c1nc2c(ccc3cc(-c4ccc(NC(=O)N5CCN(C6CCN(C(=O)C7CC7)CC6)CC5)cc4OC(F)(F)F)ccc32)[nH]1)C(C)C [Example 16, ((S)-1-{(2S,4S)-2-[7-(4-{[4-(1-Cyclopropanecarbonyl-piperidin-4-yl)-piperazine-1-carbonyl]-amino}-2-trifluoromethoxy-phenyl)-3H-naphth[1,2-d]imidazol-2-yl]-4-methyl-pyrrolidine-1-carbonyl}-2-methyl-propyl)-carbamic acid methyl ester] |  |  | < 0.1 | < 0.1
12 | COC(=O)N[C@H](C(=O)N1C[C@@H](C)C[C@H]1c1nc(-c2ccc(-c3ccc(NC(=O)N4CCN(C5CCN(C(=O)C6CCC6)CC5)CC4)cc3OC(F)(F)F)cc2)c[nH]1)C(C)C [Example 2-19] | C (C represents pEC50 between and 9 and about 10, (EC50 between 1 nM and 0.1 nM)) | D (D represents pEC50>10 (EC50<0.1 nM)) |  | 
13 | COC(=O)N[C@H](C(=O)N1C[C@@H](C)C[C@H]1c1nc2c(ccc3cc(-c4ccc(NC(=O)N5CCN(C6CCN(C(=O)[C@H]7CC7(C)C)CC6)CC5)cc4OC(F)(F)F)ccc32)[nH]1)C(C)C [Example 6-1] | D (D represents pEC50>10 (EC50<0.1 nM)) | D (D represents pEC50>10 (EC50<0.1 nM)) |  | 
14 | COC(=O)N[C@H](C(=O)N1C[C@@H](C)C[C@H]1c1nc(-c2ccc(-c3cc(Cl)c(NC(=O)N4CCC(N5CCN(C(=O)[C@H]6CC6(C)C)C[C@@H]5C)CC4)cc3OC(F)(F)F)cc2)c[nH]1)C(C)C [Example 11, ((S)-1-{(2S,4S)-2-[4-(5′-Chloro-4′-{[4-((S)-4-dimethylcyclopropane-carbonyl-2-methyl-piperazin-1-yl)-piperidine-1-carbonyl]-amino}-2′-trifluoromethoxy-biphenyl-4-yl)-1H-imidazol-2-yl]-4-methyl-pyrrolidine-1-carbonyl}-2-methyl-propyl)-carbamic acid methyl ester] |  |  | < 0.1 | < 0.1
15 | COC(=O)N[C@H](C(=O)N1CCC[C@H]1c1nc(-c2ccc(-c3ccc(NC(=O)N4CCN(C5CCN(C(=O)OC(C)(C)C)CC5)CC4)cc3OC(F)(F)F)cc2)c[nH]1)C(C)C [Example 1-14] | C (C represents pEC50 between and 9 and about 10, (EC50 between 1 nM and 0.1 nM)) | D (D represents pEC50>10 (EC50<0.1 nM)) |  | 
16 | COC(=O)N[C@H](C(=O)N1C[C@@H](C)C[C@H]1c1nc(-c2ccc(-c3ccc(NC(=O)N4CCN(C5CCN(C(=O)[C@H]6CC6(C)C)CC5)CC4)cc3OC(F)(F)F)cc2)c(Cl)[nH]1)C(C)C [Example 2-17] | D (D represents pEC50>10 (EC50<0.1 nM)) | D (D represents pEC50>10 (EC50<0.1 nM)) |  | 
17 | COC(=O)N[C@H](C(=O)N1CCC[C@H]1c1nc(-c2ccc(-c3ccc(NC(=O)N4CCN(C5CCN(C(=O)C(C)(C)CO)CC5)CC4)cc3OC(F)(F)F)cc2)c[nH]1)C(C)C [Example 1-17] | C (C represents pEC50 between and 9 and about 10, (EC50 between 1 nM and 0.1 nM)) | D (D represents pEC50>10 (EC50<0.1 nM)) |  | 
18 | COC(=O)N[C@H](C(=O)N1C[C@@H](C)C[C@H]1c1nc(-c2ccc(-c3ccc(NC(=O)N4CCC(N5CCN(C(=O)C(C)(C)C)CC5)CC4)cc3OC(F)(F)F)cc2)c[nH]1)C1CCOCC1 [Example 17, [(S)-2-((2S,4S)-2-{4-[4′-({4-[4-(2,2-Dimethyl-propionyl)-piperazin-1-yl]-piperidine-1-carbonyl}-amino)-2′-trifluoromethoxy-biphenyl-4-yl]-1H-imidazol-2-yl}-4-methyl-pyrrolidin-1-yl)-2-oxo-1-(tetrahydro-pyran-4-yl)-ethyl]-carbamic acid methyl ester] |  |  | 0.1 to 1 | < 0.1
19 | [2H]C([2H])([2H])C1(C([2H])([2H])[2H])CC1C(=O)N1CCC(N2CCN(C(=O)Nc3ccc(-c4ccc(-c5c[nH]c([C@@H]6C[C@H](C)CN6C(=O)[C@@H](NC(=O)OC)C(C)C)n5)cc4)c(OC(F)(F)F)c3)CC2)CC1 (some centres unmarked) [Example 2-20] | D (D represents pEC50>10 (EC50<0.1 nM)) | D (D represents pEC50>10 (EC50<0.1 nM)) |  | 

— patent US9206159B2, “Piperazine-piperidine compounds as hepatitis C virus inhibitors” (Theravance Biopharma R&D IP, LLC, priority 2012, dated 2015)
